Values joined by “and” are separate entries in the source; they are usually repeats but may differ in a detail not shown here. Equal values may be shown once.
How the values were obtained:
Assay type in all cases: cell-based, Plasmodium falciparum
[1] = tested on: PfCRT variant F203A; experiment: CQ uptake assay, oocytes expressing F203A
Method: (§1) Site-directed mutagenesis of PfCRT^Dd2 was performed as described using the megaprimer method with overlap extension[21],[54]. The primer pairs used are listed in Supplementary Table 6. Please note that a codon-optimized and oocyte-adapted version of PfCRT^Dd2 was used[22] (Supplementary Fig. 16). The resulting DNA fragment was cloned into the SP64T expression vector and verified by sequencing.
(§2) Oocytes were obtained as described previously. Briefly, adult (>2 years old) female X. laevis frogs (NASCO) were anesthetized in a cooled solution of ethyl 3-amino benzoate methanesulfonate (0.1%, w/v), followed by a surgical removal of parts of the ovary. The ovary lobes were carefully dissected and small pieces of oocytes were incubated in Ca^2+-free ND96 buffer (96 mM NaCl, 2 mM KCl, 1 mM MgCl2 buffered with 5 mM HEPES/NaOH, pH 7.5) supplemented with collagenase D (0.1%, w/v; Roche), BSA (0.5%, w/v), and 9 mm Na2HPO4 at 18 °C for 14-16 h while gentle shaking. After incubation, the oocytes were carefully washed several times with ND96 buffer (96 mM NaCl, 2 mM KCl, 1.8 mM CaCl2, 1 mM MgCl2 buffered with 5 mM HEPES/NaOH, pH 7.5) supplemented with 100 mg l^−1 gentamycin). Defolliculated and healthy-looking stage V-VI oocytes were manually selected for RNA microinjection. The RNA was generated as following: The codon-optimized sequences of PfCRT variants were cloned into the pSP64T expression vector. After vector linearization using the restriction endonucleases BamHI or SalI (New England Biolabs), transcription was performed using the in vitro SP6 mMessage mMachine Kit (Ambion)[34]. The obtained RNA was kept at −80 °C and diluted with nuclease-free water to a concentration of 0.6 μg μl^−1. Precision-bore glass capillary tubes (3.5-inch glass capillaries; Drummond Scientific Co.) were pulled on a vertical puller (P-87 Flaming/Brown micropipette puller, Sutter Instrument Co.), graduated, and placed on a microinjector (Nanoject II Auto-Nanoliter Injector, Drummond Scientific Co.). 50 nl of nuclease-free water alone (control oocytes) or 50 nl of 0.6 μg μl^−1 RNA were injected under stereomicroscopic control. Injected oocytes were incubated for 46–72 h at 18 °C with twice-daily buffer changes before usage in experiments.
(§3) Drug uptake assays were performed as described previously[21],[22],[24],[34]. […] The direction of radio-labeled drug transport is here from the mostly acidic extracellular solution (pH 4.5 or 6.0, as indicated) into the oocyte cytosol (pH ∼ 7.2), which corresponds to the efflux of drug from the acidic digestive vacuole (pH 5.2) into the parasite cytoplasm (pH 7.2). The topology of PfCRT in the oolemma is such that both the N- and C-terminus face the extracellular milieu[3],[22]. In the parasite, the N- and C-terminus face the lumen of the digestive vacuole. CQ uptake kinetics were performed by incubating oocytes in ND96 buffer adjusted to a pH of 4.5, 5.0, 5.5, or 6.0 and supplemented with 50 nM [^3H]CQ and one of 7 different CQ concentrations (10 µM, 50 µM, 100 µM, 200 µM, 300 µM, 400 µM, 500 µM CQ). The reaction was stopped at the 60 min time point, which is in the linear uptake range[22],[34] (Supplementary Fig. 17). […] The radioactivity of each sample was measured using a liquid scintillation analyzer Tri-Carb 4910 TR (PerkinElmer). Oocytes that were injected with water instead of RNA were analyzed in parallel, representing the uptake of a drug by diffusion and/or endogenous permeation pathways. […]

[2] = tested on: PfCRT variant F319A; experiment: CQ uptake assay, oocytes expressing F319A
Method: as §1, §2, §3

[3] = tested on: PfCRT variant N84A; experiment: CQ uptake assay, oocytes expressing N84A
Method: as §1, §2
Drug uptake assays were performed as described previously[21],[22],[24],[34]. […] The direction of radio-labeled drug transport is here from the mostly acidic extracellular solution (pH 4.5 or 6.0, as indicated) into the oocyte cytosol (pH ∼ 7.2), which corresponds to the efflux of drug from the acidic digestive vacuole (pH 5.2) into the parasite cytoplasm (pH 7.2). The topology of PfCRT in the oolemma is such that both the N- and C-terminus face the extracellular milieu[3],[22]. In the parasite, the N- and C-terminus face the lumen of the digestive vacuole. […] For determination of the amount of drug uptake for each oocyte, the reaction medium was removed and the oocytes were washed three times with 2 ml of ice-cold ND96 buffer. Each oocyte was individually transferred to a scintillation vial containing 5% sodium dodecyl sulfate (200 μl) for lysis. […] Oocytes that were injected with water instead of RNA were analyzed in parallel, representing the uptake of a drug by diffusion and/or endogenous permeation pathways. The resulting value represents the “background“ level of drug accumulation in oocytes (in-depth discussion in[22]). The specific PfCRT-mediated uptake was determined by subtracting the corresponding background value measured in water-injected oocytes from that of PfCRT-expressing oocytes. In all cases, at least three separate experiments were performed on oocytes from different frogs (biological replicate), and for each condition in an experiment, measurements were made from 10 oocytes per treatment. For pH 5.5, 6.0, and 6.5, ND96 was buffered with 5 mM MES/Tris base.

[4] = F203A, 50 µM CQ, 1 h, mean ± SEM
[5] = pH 4.5, single replicates, Fig 1d left
[6] = pH 6.0, single replicates, Fig 1d left
[7] = F319A, 50 µM CQ, 1 h, mean ± SEM
[8] = N84A, 50 µM CQ, 1 h, mean ± SEM

SMILES: CCN(CC)CCCC(C)Nc1ccnc2cc(Cl)ccc12 (stereo not shown) [CQ, chloroquine]
- Activity at pH 4.5 [1, 4]: 0.93 ± 0.19 pmol h-1 oocyte-1
- Activity at pH 6.0 [1, 4]: 2.55 ± 0.14 pmol h-1 oocyte-1
- R-value ([1]; F203A, CQ transport at pH 4.5 / pH 6.0): 0.36 ± 0.07
- F203A transport activity pH 4.5 [1, 5]: 0.48 pmol oocyte-1 h-1 and 1.22 pmol oocyte-1 h-1 and 1.1 pmol oocyte-1 h-1
- F203A transport activity pH 6.0 [1, 6]: 2.29 pmol oocyte-1 h-1 and 2.47 pmol oocyte-1 h-1 and 2.88 pmol oocyte-1 h-1
- Activity at pH 4.5 [2, 7]: 0.90 ± 0.25 pmol h-1 oocyte-1
- Activity at pH 6.0 [2, 7]: 3.64 ± 0.45 pmol h-1 oocyte-1
- R-value ([2]; F319A, CQ transport at pH 4.5 / pH 6.0): 0.26 ± 0.07
- F319A transport activity pH 4.5 [2, 5]: 0.43 pmol oocyte-1 h-1 and 1.48 pmol oocyte-1 h-1 and 0.80 pmol oocyte-1 h-1
- F319A transport activity pH 6.0 [2, 6]: 4.19 pmol oocyte-1 h-1 and 3.55 pmol oocyte-1 h-1 and 3.19 pmol oocyte-1 h-1
- Activity at pH 4.5 [3, 8]: 1.41 ± 0.23 pmol h-1 oocyte-1
- Activity at pH 6.0 [3, 8]: 3.24 ± 0.32 pmol h-1 oocyte-1
- R-value ([3]; N84A, CQ transport at pH 4.5 / pH 6.0): 0.42 ± 0.04 and 0.42
- N84A transport activity pH 4.5 ([3]; pH 4.5, individual replicates (Fig 6a)): 1.45 pmol oocyte-1 h-1 and 0.73 pmol oocyte-1 h-1 and 1.46 pmol oocyte-1 h-1 and 2.00 pmol oocyte-1 h-1
- N84A transport activity pH 6.0 ([3]; pH 6.0, individual replicates (Fig 6a)): 3.16 pmol oocyte-1 h-1 and 3.18 pmol oocyte-1 h-1 and 4.19 pmol oocyte-1 h-1
- N84A R-value ([3]; transport activity pH 4.5 relative to pH 6.0 (Fig 6a)): 0.46 and 0.30 and 0.48
